{"source": "patent US11066395B2", "about": "“Dimethylaminoethanol salt of a GLP-1 receptor modulator” (RECEPTOS LLC, priority 2016, dated 2021)", "key": {"[1]": {"test": "Thermodynamic solubility testing in pH 6.8 phosphate buffer", "assay_type": "physicochemical", "conditions": "for solubility at 24 h: phosphate buffer, pH 6.8, aqueous buffer, thermodynamic from solid", "procedure": "0.5 mL of that buffer is then added to 5-10 mg of each crystalline salt hit. The pH of the resultant slurries are measured after 10 minutes and, if needed, adjusted back to pH 6.8 using the individual buffer component. Samples were stirred at room temperature for 24 hours, filtered, and analyzed for concentration by HPLC."}, "[2]": {"test": "Salt screen: storage of salts at 40° C./75% RH for 7 days, re-analysis by XRPD", "description": "These resultant suspensions were temperature cycled between ambient temperature (22° C.) and 40° C. in 4 hour cycles for 72 hours. Samples were analyzed by XRPD and any remaining solid was isolated by filtration using a centrifuge and tubes with a 0.45 m filter insert. Isolated solids were allowed to dry at ambient condition and analyzed by ^1H NMR."}, "[3]": {"conditions": "counterion base; cited from earlier work"}, "[4]": {"test": "Stress testing of dimethylaminoethanol salt (40° C./75% RH and 80° C./ambient, 1 week), XRPD and HPLC", "assay_type": "physicochemical", "procedure": "To better understand the physical and chemical stability of the dimethylaminoethanol salt, the salt was placed under stressed condition (40° C./75% RH and 80° C./Ambient) for 1 week. The solids were then removed and analyzed via both XRPD and HPLC to determine physical and chemical stability, respectively."}, "[5]": {"test": "pH solubility curve (buffers pH 1-pH 8, deionized water)", "assay_type": "physicochemical", "procedure": "A range of buffers were made up (pH 1-pH 8) to understand the effect of pH on the measured solubility. In each case the pH is measured prior to isolation to ensure most accurate data. […] All solids were characterized by XRPD post solubility determination and shown all to be amorphous (FIG. 44), which is common when a solid is placed into aqueous conditions."}, "[6]": {"test": "Hygroscopicity by DVS/GVS with XRPD post GVS", "assay_type": "physicochemical", "text": "To determine the hygroscopicity of the dimethylaminoethanol salt the sample was submitted for DVS (FIG. 39).\nThe thermal event likely corresponds to the melt of the crystalline material."}, "[7]": {"test": "Hydration study: slurry in aqueous solvents containing 10% by volume of water, XRPD", "assay_type": "physicochemical", "conditions": "acetone, acetonitrile or methanol/water 90/10 by volume", "procedure": "To understand the potential of forming hydrates the dimethylaminoethanol salt was slurried in a series of aqueous solvents, containing 10% by volume of water.\nWhen the solids were analyzed by XRPD post hydration study (FIG. 41), the majority of solids had been rendered amorphous. Only the acetone/water mixture had any signs of crystallinity, which corresponded to the input material. […] The generation of amorphous material could be due to the high affinity of the molecule (RP-101) with solvents and water."}}, "note": "Structures can show the parent of a compound that is named as a salt. Where two headings read alike, the source gives them in different places. Marks after values point to notes of the source that are not given here."}
{"compound": "CCC1CCC(C2CC=C(c3cnc(-c4ccc(CC(NC(=O)c5ccc(C(C)(C)C)s5)C(=O)N5CC(C(=O)O)C5)cc4)nc3)CC2)CC1", "note": "(centres unmarked) [meglumine-RP-101]", "values": [{"measurement": "Solubility", "setting": "[1]; aqueous, pH 6.8 phosphate buffer, room temperature, 24 hours, HPLC, listed as Meglumine (DCM)", "result": 160, "unit": "µg/mL"}, {"measurement": "solubility at 24 h", "setting": "[1]; aqueous, pH 6.8 phosphate buffer, room temperature, 24 hours, HPLC, read-out: Solubility", "result": 303, "unit": "µg/mL"}, {"measurement": "solubility at 24 h", "setting": "[1]; material obtained from 1,4-dioxane, read-out: Solubility at pH 6.8", "result": 303, "unit": "µg/mL"}, {"measurement": "solubility at 24 h", "setting": "[1]; material obtained from DCM, read-out: Solubility at pH 6.8", "result": 160, "unit": "µg/mL"}, {"measurement": "Stability at 40° C./75% RH (XRPD)", "setting": "[2]; material obtained from 1,4-dioxane", "result": "Only small changes"}, {"measurement": "Stability at 40° C./75% RH (XRPD)", "setting": "[2]; material obtained from DCM", "result": "decrease in crystallinity"}, {"measurement": "Stability at 40° C./75% RH (XRPD)", "setting": "[2]; material obtained from MEK", "result": "Only small changes"}]}
{"compound": "C[N+](C)(C)CCO.[OH-]", "note": "[Choline hydroxide]", "values": [{"measurement": "LogP", "setting": "[3]", "result": "−3.70"}, {"measurement": "pKa 1", "setting": "[3]", "result": 11.00}]}
{"compound": "NCCCC[C@H](N)C(=O)O", "note": "[L-Lysine]", "values": [{"measurement": "LogP", "setting": "[3]", "result": "−1.04"}, {"measurement": "pKa 3", "setting": "[3]", "result": "2.16*"}]}
{"compound": "CCC1CCC(C2CC=C(c3cnc(-c4ccc(CC(NC(=O)c5ccc(C(C)(C)C)s5)C(=O)N5CC(C(=O)O)C5)cc4)nc3)CC2)CC1", "note": "(centres unmarked) [deanol-RP-101, 2-hydroxy-N,N-dimethylethanaminium 1-(2-(5-(tert-butyl)-thiophene-2-carboxamido)-3-(4-(5-(4′-ethyl-[1,1′-bi(cyclohexan)]-3-en-4-yl)-pyrimidin-2-yl)phenyl)propanoyl)azetidine-3-carboxylate salt]", "values": [{"measurement": "Crystalline form by XRPD post stability (physical stability)", "setting": "[4]; 40° C./75% RH", "result": "same crystalline form was present"}, {"measurement": "Crystallinity by XRPD post stability", "setting": "[4]; 40° C./75% RH", "result": "decrease in crystallinity"}, {"measurement": "Purity by HPLC post stress (chemical stability)", "setting": "[4]; 40° C./75% RH", "result": 97.3, "unit": "%"}, {"measurement": "Crystalline form by XRPD post stability (physical stability)", "setting": "[4]; 80° C./ambient", "result": "same crystalline form was present"}, {"measurement": "Purity by HPLC post stress (chemical stability)", "setting": "[4]; 80° C./ambient", "result": 96.8, "unit": "%"}, {"measurement": "Solubility", "setting": "[5]; acidic conditions", "result": "low"}, {"measurement": "Solubility", "setting": "[5]; basic conditions", "result": "rises significantly"}, {"measurement": "Solubility", "setting": "[5]; deionized water", "result": "relatively high"}, {"measurement": "Hygroscopicity (DVS/GVS)", "setting": "[6]", "result": "the process was reversible and did not indicate the conversion to a hydrate"}, {"measurement": "XRPD post GVS compared to input material", "setting": "[6]", "result": "no change seen"}, {"measurement": "Hydrate formation (XRPD post hydration study)", "setting": "[7]", "result": "no obvious hydrate"}]}
{"compound": "CNC[C@H](O)[C@@H](O)[C@H](O)[C@H](O)CO", "note": "[N-Methylglucamine, (2R,3R,4R,5S)-6-(methylamino)hexane-1,2,3,4,5-pentaol]", "values": [{"measurement": "LogP", "setting": "[3]", "result": "−3.37"}]}
